Reference: the NIST ThermoML archive (doi:10.1016/j.fluid.2004.09.013)

Settings: for mass density: Fluid (supercritical or subcritical phases), Vibrating tube method; for vapor or sublimation pressure: Liquid

C=CCC [1-butene]
Settings | mass density [kg/m3]
388.24 K, 35013 kPa | 554.66
388.24 K, 40001 kPa | 562.62
393.24 K, 3099 kPa | 433.35
393.24 K, 4988 kPa | 452.98
393.24 K, 10001 kPa | 483.54
393.24 K, 14990 kPa | 503.16
393.24 K, 20005 kPa | 518.2
393.24 K, 24996 kPa | 530.47
393.24 K, 30000 kPa | 540.98
393.24 K, 35004 kPa | 550.18
393.24 K, 39996 kPa | 558.42
398.24 K, 3328 kPa | 420.6
398.24 K, 4984 kPa | 441.24
398.24 K, 9995 kPa | 475.63
398.24 K, 14988 kPa | 496.67
398.24 K, 20004 kPa | 512.53
398.24 K, 24995 kPa | 525.32
398.24 K, 29999 kPa | 536.22
398.24 K, 34991 kPa | 545.71
398.24 K, 40002 kPa | 554.2
403.24 K, 3570 kPa | 406.72
403.24 K, 4981 kPa | 428.43
403.24 K, 9984 kPa | 467.46
403.24 K, 14984 kPa | 490.08
403.24 K, 19994 kPa | 506.77
403.24 K, 24991 kPa | 520.14
403.24 K, 29990 kPa | 531.44
403.24 K, 34986 kPa | 541.24
403.24 K, 40010 kPa | 549.99
408.24 K, 3826 kPa | 391.44
408.24 K, 4981 kPa | 414.13
408.24 K, 9995 kPa | 459.14
408.24 K, 14983 kPa | 483.4
408.24 K, 19998 kPa | 501
408.24 K, 24993 kPa | 514.95
408.24 K, 29994 kPa | 526.66
408.24 K, 34991 kPa | 536.79
408.24 K, 40009 kPa | 545.77
413.24 K, 4097 kPa | 374.62
413.24 K, 4986 kPa | 397.78
413.24 K, 9991 kPa | 450.43
413.24 K, 14983 kPa | 476.61
413.24 K, 20002 kPa | 495.19
413.24 K, 24998 kPa | 509.75
413.24 K, 30000 kPa | 521.88
413.24 K, 34989 kPa | 532.32
413.24 K, 40005 kPa | 541.58
418.24 K, 4381 kPa | 356.12
418.24 K, 4990 kPa | 378.2
418.24 K, 9997 kPa | 441.54
418.24 K, 14996 kPa | 469.76
418.24 K, 20000 kPa | 489.3
418.24 K, 24996 kPa | 504.48
418.24 K, 29999 kPa | 517.07
418.24 K, 34991 kPa | 527.85
418.24 K, 40005 kPa | 537.36
423.24 K, 5017 kPa | 354.2
423.24 K, 9991 kPa | 431.88
423.24 K, 14996 kPa | 462.7
423.24 K, 20000 kPa | 483.36
423.24 K, 24995 kPa | 499.21
423.24 K, 29997 kPa | 512.25
423.24 K, 34989 kPa | 523.35
423.24 K, 39991 kPa | 533.12
428.24 K, 5020 kPa | 318.6
428.24 K, 9997 kPa | 422.29
428.24 K, 14995 kPa | 455.57
428.24 K, 19996 kPa | 477.35
428.24 K, 24996 kPa | 493.9
428.24 K, 29993 kPa | 507.4
428.24 K, 34987 kPa | 518.87
428.24 K, 39990 kPa | 528.9
433.24 K, 5019 kPa | 257.92
433.24 K, 9998 kPa | 412.15
433.24 K, 14987 kPa | 448.26
433.24 K, 19989 kPa | 471.28
433.24 K, 24994 kPa | 488.57
433.24 K, 29992 kPa | 502.55
433.24 K, 34997 kPa | 514.38
433.24 K, 40003 kPa | 524.73
438.24 K, 5011 kPa | 195.21
438.24 K, 9986 kPa | 401.49
438.24 K, 14995 kPa | 440.85
438.24 K, 19991 kPa | 465.16
438.24 K, 24999 kPa | 483.18
438.24 K, 29997 kPa | 497.7
438.24 K, 35010 kPa | 509.95
438.24 K, 39994 kPa | 520.5
443.24 K, 5018 kPa | 165.31
443.24 K, 14986 kPa | 433.23
443.24 K, 20005 kPa | 458.99
443.24 K, 24988 kPa | 477.7
443.24 K, 30010 kPa | 492.78
443.24 K, 35012 kPa | 505.33
443.24 K, 39996 kPa | 516.19
443.25 K, 9990 kPa | 390.35
448.24 K, 5018 kPa | 148
448.24 K, 14981 kPa | 425.58
448.24 K, 19992 kPa | 452.7
448.24 K, 24997 kPa | 472.33
448.24 K, 29998 kPa | 487.86
448.24 K, 34998 kPa | 500.83
448.24 K, 39998 kPa | 512
448.25 K, 9991 kPa | 378.84
453.24 K, 5018 kPa | 136.35
453.24 K, 14996 kPa | 418.01
453.24 K, 19984 kPa | 446.42
453.24 K, 24987 kPa | 466.88
453.24 K, 29994 kPa | 482.99
453.24 K, 34990 kPa | 496.33
453.24 K, 40001 kPa | 507.8

Settings | vapor or sublimation pressure [kPa]
395.35 K | 2678.7
403.65 K | 3085.8
409.68 K | 3413.2
415.36 K | 3739.2
